The source of these data is patent US4613503A, “Antibiotic A26201-1 and antibiotic A26201-2 produced by a novel strain of actinoplanes” (The Dow Chemical Company, priority 1984, dated 1986).

What all share (format): cell-based
The test system of test [1] is Streptococcus bovis. Put plainly: Minimum inhibitory concentration, agar dilution. The settings on record: trypticase soy agar, 2-fold serial dilutions.
For test [2], the system named is Bacteroides multiacidus. In words: Minimum inhibitory concentration, agar dilution. The conditions noted are these: trypticase soy agar, 2-fold serial dilutions.
In test [3] the test system is Streptococcus mutans. Put plainly: Minimum inhibitory concentration, agar dilution. The settings on record: trypticase soy agar, 2-fold serial dilutions.
The test system of test [4] is Actinomyces viscosus. Put plainly: Minimum inhibitory concentration, agar dilution. The conditions noted are these: trypticase soy agar, 2-fold serial dilutions.
Test [5] concerns Salmonella typhimurium. Put plainly: Minimum inhibitory concentration, agar dilution. The conditions noted are these: trypticase soy agar, 2-fold serial dilutions.
Test [6] concerns Lactobacillus casei. In words: Minimum inhibitory concentration, agar dilution. The conditions noted are these: trypticase soy agar, 2-fold serial dilutions.
For test [7], the system named is Clostridium perfringens.
Test [8] deals with Clostridium septicum. Put plainly: Minimum inhibitory concentration, agar dilution. The settings on record: trypticase soy agar, 2-fold serial dilutions.
The test system of test [9] is Candida albicans. In words: Minimum inhibitory concentration, agar dilution. The conditions noted are these: trypticase soy agar, 2-fold serial dilutions.
The subject of test [10] is Sarcina lutea. Put plainly: Minimum inhibitory concentration, agar dilution. The settings on record: trypticase soy agar, 2-fold serial dilutions.
The subject of test [11] is Mucor miehei. In words: Minimum inhibitory concentration, agar dilution. The settings on record: trypticase soy agar, 2-fold serial dilutions.
For test [12], the system named is Pseudomonas aeruginosa. In words: Minimum inhibitory concentration, agar dilution. The settings on record: trypticase soy agar, 2-fold serial dilutions.
Test [13] deals with Pircularia oryzae. Put plainly: Minimum inhibitory concentration, agar dilution. The settings on record: trypticase soy agar, 2-fold serial dilutions. As to the method:
Minimum inhibitory concentrations (MIC's) were determined respectively for the crude broth material, antibiotic A26201, antibiotic A26201-1, antibiotic A26201-2, and gardimycin against a number of different microorganisms. The following techniques were used to determine the MIC's:
Thirty ml aliquots of trypticase soy agar were respectively placed in individual tubes. The agar was melted and then cooled to about 45° to 50° C. A concentration (2-fold serial dilutions of the highest concentration tested) of test antibiotic was added to each individual tube. Each test mixture was stirred and poured into an individual petri plate so that each petri plate contained a single concentration of antibiotic. When the agar hardened, the plates were inoculated with either aerobic or anaerobic test organisms. The plates inoculated with aerobic organisms were incubated at 37° C. for 24 hours and read for bacterial growth. The same plates were again incubated at 30° C. for an additional 48 hours at which point they were checked for yeast and fungal growth. The plates inoculated with anaerobic organisms were incubated at 37° C. in an anaerobic chamber and read at 48 hours.

Test [14] concerns Bacteroides fragilis. In words: Minimum inhibitory concentration, agar dilution. The conditions noted are these: trypticase soy agar, 2-fold serial dilutions.
The subject of test [15] is Escherchia coli. In words: Minimum inhibitory concentration, agar dilution. The settings on record: trypticase soy agar, 2-fold serial dilutions.
For test [16], the system named is Erwinia amylovora. Put plainly: Minimum inhibitory concentration, agar dilution. The conditions noted are these: trypticase soy agar, 2-fold serial dilutions.
The subject of test [17] is Staphylococcus aureus. In words: Minimum inhibitory concentration, agar dilution. The settings on record: trypticase soy agar, 2-fold serial dilutions.
The subject of test [18] is Bacillus subtilis. Put plainly: Minimum inhibitory concentration, agar dilution. The settings on record: trypticase soy agar, 2-fold serial dilutions.
The subject of test [19] is Fusobacterium necrophorum. Put plainly: Minimum inhibitory concentration, agar dilution. The settings on record: trypticase soy agar, 2-fold serial dilutions.
Test [20] has as its system Aspergillus niger. In words: Minimum inhibitory concentration, agar dilution. The conditions noted are these: trypticase soy agar, 2-fold serial dilutions.
For test [21], the system named is Streptococcus faecalis. In words: Minimum inhibitory concentration, agar dilution. The conditions noted are these: trypticase soy agar, 2-fold serial dilutions.

Take gardimycin: the MIC in [1] is > 75 µg/mL; in test [2] it was > 50 µg/mL; in test [3], > 75 µg/mL; in [4] it was 12.5 µg/mL; in [5], > 75 µg/mL; in test [6], > 75 µg/mL. The MIC in test [7] was 3.1 µg/mL; in [8], 3.1 µg/mL; in [9], > 75 µg/mL; in [10] it was 1.5 µg/mL; in test [11], > 75 µg/mL; in [12], > 75 µg/mL. Moreover, the MIC in test [13] was > 75 µg/mL; in test [14], > 50 µg/mL; in test [15], > 75 µg/mL; in test [16], > 75 µg/mL; in [17], 75 µg/mL; in test [18], 75 µg/mL. Moreover, the results for the MIC in test [19], in test [20] and in test [21] were > 75 µg/mL, > 75 µg/mL and 25 µg/mL, respectively.
